Measurements published in ChEMBL document CHEMBL1221225, “A small molecule that directs differentiation of human ESCs into the pancreatic lineage” (Nat Chem Biol, 2009).

Legend:
Type in all cases: cell-based
[1] = Activation of PKC signaling in human HUES8 definitive endoderm cells assessed as increase in Pdx1-expressing cells at 500 nM after 4 days by immunocytochemistry (reference value: 2.8+/-0.6%)
[2] = Activation of PKC signaling in human HUES8 cells assessed as increase in Pdx1-expressing cells at 500 nM after 4 days by immunocytochemistry pregrown in medium with Wnt3a, activin A, FGF10, KAAD-cyclopamine and retinoic acid relative to ILV treated cells
[3] = Activation of PKC signaling in human HUES8 definitive endoderm cells assessed as increase in Pdx1-expressing cells at 14 nM after 4 days by immunocytochemistry (reference value: 2.8+/-0.6%)
[4] = Activation of PKC signaling in human HUES8 cells assessed as increase in Pdx1-expressing cells at 14 nM after 4 days by immunocytochemistry pregrown in medium with Wnt3a, activin A, FGF10, KAAD-cyclopamine and retinoic acid relative to ILV treated cells

Structure (SMILES)	inhibition [1] [%]	inhibition [2] [%]	inhibition [3] [%]	inhibition [4] [%]
CC(C)[C@H]1C(=O)N[C@H](CO)Cc2cc(NC(=O)/C=C/C=C/c3ccc(C(F)(F)F)cc3)ccc2N1C	12.2	15.4	–	–
CCCCCCCCCCCCCC(=O)O[C@@H]1[C@@H](C)[C@@]2(O)[C@@H](C=C(CO)C[C@]3(O)C(=O)C(C)=C[C@@H]23)[C@@H]2C(C)(C)[C@]12OC(C)=O	–	–	18.3	21.3
